Source: patent US20080293696A1, “2-Aminoarylcarboxamides Useful as Cancer Chemotherapeutic Agents” (Bayer Pharmaceuticals Corporation, priority 2004, published 2008)

System: PAKT/PKB (p-(S473) AKT) in H209 small cell lung carcinoma cells stimulated with Stem Cell Factor
Test: PAKT/PKB Cytoblot Assay with H209 cells (SCF-stimulated p-(S473) AKT)
Format: cell-based
Settings: Homo sapiens, NCI-H209, compound 1 hour, SCF 25 ng/mL 5 minutes
Outline: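 H209 SCLC cells kept overnight in RPMI with 0.1% BSA were pretreated 1 h at 37 °C with compound (0.01–10 μM final), then stimulated with SCF 25 ng/mL for 5 min. After formaldehyde/methanol fixation, p-(S473) AKT was detected in-cell with HRP secondary and ECL chemiluminescence, and IC50 was derived.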

[1] = group: between 500 nM and 1 μM (units in value)

Structure (SMILES) | IC50 (group: less than 500 nM) [nM] | further results
Nc1cc(CNc2ccccc2C(=O)Nc2ccc3c(c2)OC(F)(F)O3)ccn1 [Example 153, 2-{[(2-aminopyridin-4-yl)methyl]amino}-N-(2,2-difluoro-1,3-benzodioxol-5-yl)benzamide] | < 500 | 
COCCOCC(=O)Nc1cc(CNc2ccccc2C(=O)Nc2ccc3c(c2)OC(F)(F)O3)ccn1 [Example 154, N-(2,2-difluoro-1,3-benzodioxol-5-yl)-2-{[(2{[(2-methoxyethoxy)acetyl]amino}pyridin-4-yl)methyl]amino}benzamide] |  | IC50 [1]: 500 to 1000 nM
COCC(=O)Nc1cc(CNc2ccccc2C(=O)Nc2ccc3c(c2)OC(F)(F)O3)ccn1 [Example 155, N-(2,2-difluoro-1,3-benzodioxol-5-yl)-2-[({2-[(methoxyacetyl)amino]pyridin-4-yl}methyl)amino]benzamide] | < 500 | 
CC(=O)OCC(=O)Nc1cc(CNc2ccccc2C(=O)Nc2ccc3c(c2)OC(F)(F)O3)ccn1 [Example 156, 2-[(4-{[(2-{[(2,2-difluoro-1,3-benzodioxol-5-yl)amino]carbonyl}phenyl)amino]methyl}pyridin-2-yl)aminol-2-oxoethyl acetate] | < 500 | 
COC(=O)COCC(=O)Nc1cc(CNc2ccccc2C(=O)Nc2ccc3c(c2)OC(F)(F)O3)ccn1 [Example 157] | < 500 | 
CCOC(=O)CCC(=O)N(C(=O)CCC(=O)OCC)c1cc(CNc2ccccc2C(=O)Nc2ccc3c(c2)OC(F)(F)O3)ccn1 [Example 158, diethyl 4,4′-[(4-{[(2-{[(2,2-difluoro-1,3-benzodioxol-5-yl)amino]carbonyl}phenyl)amino]methyl}pyridin-2-yl)imino]bis(4-oxobutanoate)] | < 500 | 
COC(C)(C)C(=O)Nc1cc(CNc2ccccc2C(=O)Nc2ccc3c(c2)OC(F)(F)O3)ccn1 [Example 159, N-(2,2-difluoro-1,3-benzodioxol-5-yl)-2-[({2-[(2-methoxy-2-methylpropanoyl)amino]pyridin-4-yl}methyl)amino]benzamide] | < 500 | 
CCNC(=O)Nc1cc(CNc2ccccc2C(=O)Nc2ccc3c(c2)OC(F)(F)O3)ccn1 [Example 162, N-(2,2-difluoro-1,3-benzodioxol-5-yl)-2-{[(2-{[(ethylamino)carbonyl]amino}pyridin-4-yl)methyl]amino}benzamide] | < 500 | 
COc1ccc(NC(=O)Nc2cc(CNc3ccccc3C(=O)Nc3ccc4c(c3)OC(F)(F)O4)ccn2)cc1 [Example 163, N-(2,2-difluoro-1,3-benzodioxol-5-yl)-2-({[2-({[(4-methoxyphenyl)amino]carbonyl}amino)pyridin-4-yl]methyl}amino)benzamide] |  | IC50 [1]: 500 to 1000 nM
CNC(=O)Nc1cc(CNc2ccccc2C(=O)Nc2ccc3c(c2)OC(F)(F)O3)ccn1 [Example 165, N-(2,2-difluoro-1,3-benzodioxol-5-yl)-2-{[(2-{[(methylamino)carbonyl]amino}pyridin-4-yl)methyl]amino}benzamide] | < 500 | 
N#Cc1cccc(NC(=O)Nc2cc(CNc3ccccc3C(=O)Nc3ccc4c(c3)OC(F)(F)O4)ccn2)c1 [Example 166, 2-({[2-({[(3-cyanophenyl)amino]carbonyl}amino)pyridin-4-yl]methyl}amino)-N-(2,2-difluoro-1,3-benzodioxol-5-yl)benzamide] |  | IC50 (group: between 1 and 3 μM): 1000 to 3000 nM
COc1cccc(NC(=O)Nc2cc(CNc3ccccc3C(=O)Nc3ccc4c(c3)OC(F)(F)O4)ccn2)c1 [Example 167, N-(2,2-difluoro-1,3-benzodioxol-5-yl)-2-({[2-({[(3-methoxyphenyl)amino]carbonyl}amino)pyridin-4-yl]methyl}amino)benzamide] |  | IC50 (group: between 1 and 3 μM): 1000 to 3000 nM
CCCNC(=O)Nc1cc(CNc2ccccc2C(=O)Nc2ccc3c(c2)OC(F)(F)O3)ccn1 [Example 169, N-(2,2-difluoro-1,3-benzodioxol-5-yl)-2-{[(2-{[(propylamino)carbonyl]amino}pyridin-4-yl)methyl]amino}benzamide] | < 500 | 
CCCCNC(=O)Nc1cc(CNc2ccccc2C(=O)Nc2ccc3c(c2)OC(F)(F)O3)ccn1 [Example 170, 2-{[(2-{[(butylamino)carbonyl]amino}pyridin-4-yl)methyl]amino}-N-(2,2-difluoro-1,3-benzodioxol-5-yl)benzamide] | < 500 | 
Cc1cccc(CNC(=O)Nc2cc(CNc3ccccc3C(=O)Nc3ccc4c(c3)OC(F)(F)O4)ccn2)c1 [Example 171, N-(2,2-difluoro-1,3-benzodioxol-5-yl)-2-({[2-({[(3-methylbenzyl)amino]carbonyl}amino)pyridin-4-yl]methyl}amino)benzamide] |  | IC50 (group: between 1 and 3 μM): 1000 to 3000 nM
O=C(NCc1ccccc1)Nc1cc(CNc2ccccc2C(=O)Nc2ccc3c(c2)OC(F)(F)O3)ccn1 [Example 172, 2-{[(2-{[(benzylamino)carbonyl]amino}pyridin-4-yl)methyl]amino]-N-(2,2-difluoro-1,3-benzodioxol-5-yl)benzamide] |  | IC50 [1]: 500 to 1000 nM
O=C(NCc1ccco1)Nc1cc(CNc2ccccc2C(=O)Nc2ccc3c(c2)OC(F)(F)O3)ccn1 [Example 173, N-(2,2-difluoro-1,3-benzodioxol-5-yl)-2-({[2-({[(2-furylmethyl)amino]carbonyl}amino)pyridin-4-yl]methyl}amino)benzamide] | < 500 | 
CN(C)C(=O)Nc1cc(CNc2ccccc2C(=O)Nc2ccc3c(c2)OC(F)(F)O3)ccn1 [Example 174, N-(2,2-difluoro-1,3-benzodioxol-5-yl)-2-{[(2-{[(dimethylamino)carbonyl]amino}pyridin-4-yl)methyl]amino}benzamide] | < 500 | 
CS(=O)(=O)Nc1cc(CNc2ccccc2C(=O)Nc2ccc3c(c2)OC(F)(F)O3)ccn1 [Example 175, N-(2,2-difluoro-1,3-benzodioxol-5-yl)-2-[({2-[(methylsulfonyl)amino]pyridin-4-yl}methyl)amino]benzamide] | < 500 | 
Cc1csc(Nc2cc(CNc3ccccc3C(=O)Nc3ccc4c(c3)OC(F)(F)O4)ccn2)n1 [Example 176, N-(2,2-difluoro-1,3-benzodioxol-5-yl)-2-[({2-[(4-methyl-1,3-thiazol-2-yl)amino]pyridin-4-yl}methyl)amino]benzamide] | < 500 | 
O=C(Nc1ccc2c(c1)OC(F)(F)O2)c1ccccc1NCc1ccnc(CO)c1 [Example 177, N-(2,2-difluoro-1,3-benzodioxol-5-yl)-2-({[2-(hydroxymethyl)pyridin-4-yl]methyl}amino)benzamide] |  | IC50 [1]: 500 to 1000 nM
